In the NIST ThermoML archive (doi:10.1021/je300819g):

Details: Liquid, Ebulliometric method (Recirculating still)

CCNCCN [N-ethylethane-1,2-diamine]
Details	vapor or sublimation pressure [kPa]
358 K	20.8
366.5 K	29.6
374.1 K	39.5
380.3 K	49.7
390.2 K	69.5
398.3 K	90.2
401.9 K	101.2
402.2 K	101.5
